Measured values taken from PubChem BioAssay AID1963986 (Molecular Pharmacology Branch, DTP, NCI, 2024).
Where “and” joins values, the source holds several entries; their conditions need not be identical. Equal entries are not always repeated. One block for each compound: values may come before it.

System: 171881-019-R-J1-PDC tumor spheroid viability
Assay: Anticancer human tumor 171881-019-R-J1-PDC patient-derived invasive breast carcinoma cell line growth inhibition [PI3K]
Conditions: spheroids with HUVEC and MSC; for viability, T/C: stronger effect = lower value
Summary of the method: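 High-throughput combination screen: PI3K inhibitors crossed with targeted small molecules on complex spheroids of tumor cells, HUVEC and MSCs at 37 degrees C, 5% CO2. Top concentration was at or near clinical Cmax (otherwise 10 microM), with half-log decrements.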

[1] = curve of first compound, second compound 0.0316 µM
[2] = curve of first compound, second compound 0.1 µM
[3] = curve of first compound, second compound 0.316 µM
[4] = curve of first compound, second compound 1 µM
[5] = second compound 0.0316 µM, first compound 0.0316 µM
[6] = second compound 0.0316 µM, first compound 0.1 µM
[7] = second compound 0.0316 µM, first compound 0.316 µM
[8] = second compound 0.0316 µM, first compound 1 µM
[9] = second compound 0.0316 µM, first compound 3.16 µM
[10] = second compound 0.0316 µM, first compound 10 µM
[11] = second compound 0.1 µM, first compound 0.0316 µM
[12] = second compound 0.1 µM, first compound 0.1 µM
[13] = second compound 0.1 µM, first compound 0.316 µM
[14] = second compound 0.1 µM, first compound 1 µM
[15] = second compound 0.1 µM, first compound 3.16 µM
[16] = second compound 0.1 µM, first compound 10 µM
[17] = second compound 0.316 µM, first compound 0.0316 µM
[18] = second compound 0.316 µM, first compound 0.1 µM
[19] = second compound 0.316 µM, first compound 0.316 µM
[20] = second compound 0.316 µM, first compound 1 µM
[21] = second compound 0.316 µM, first compound 3.16 µM
[22] = second compound 0.316 µM, first compound 10 µM
[23] = second compound 1 µM, first compound 0.0316 µM
[24] = second compound 1 µM, first compound 0.1 µM
[25] = second compound 1 µM, first compound 0.316 µM
[26] = second compound 1 µM, first compound 1 µM
[27] = second compound 1 µM, first compound 3.16 µM
[28] = second compound 1 µM, first compound 10 µM
[29] = curve of first compound, second compound 0.00316 µM
[30] = curve of first compound, second compound 0.01 µM
[31] = second compound 0.00316 µM, first compound 0.0316 µM
[32] = second compound 0.00316 µM, first compound 0.1 µM
[33] = second compound 0.00316 µM, first compound 0.316 µM
[34] = second compound 0.00316 µM, first compound 1 µM
[35] = second compound 0.00316 µM, first compound 3.16 µM
[36] = second compound 0.00316 µM, first compound 10 µM
[37] = second compound 0.01 µM, first compound 0.0316 µM
[38] = second compound 0.01 µM, first compound 0.1 µM
[39] = second compound 0.01 µM, first compound 0.316 µM
[40] = second compound 0.01 µM, first compound 1 µM
[41] = second compound 0.01 µM, first compound 3.16 µM
[42] = second compound 0.01 µM, first compound 10 µM
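Note: spheroids exposed to compound for 7 days before viability read.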
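Throughout, for viability, T/C: 100% = DMSO vehicle-treated spheroids.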

IC50 (curve of compound): 5.64 µM [middle of 4 runs]
Compound: CCCS(=O)(=O)Nc1ccc(F)c(C(=O)c2c[nH]c3ncc(-c4ccc(Cl)cc4)cc23)c1F
viability, T/C (compound 0.0316 µM): 91.5% [middle of 4 runs] | viability, T/C (compound 0.1 µM): 91.1% [middle of 4 runs] | viability, T/C (compound 0.316 µM): 101% (2×) and 103% and 90.9% | viability, T/C (compound 1 µM): 99.5% [middle of 4 runs] | viability, T/C (compound 3.16 µM): 89.8% [middle of 4 runs] | viability, T/C (compound 10 µM): 16.1% [middle of 4 runs]

IC50 [1]: 4130 nM | IC50 [2]: 3980 nM | IC50 [3]: 3970 nM | IC50 [4]: 4010 nM | IC50 (curve of first compound, second compound 3.16 µM): 2590 nM | IC50 (curve of first compound, second compound 10 µM): 1490 nM
Compound: CC1(C)CCC(CN2CCN(c3ccc(C(=O)NS(=O)(=O)c4ccc(NCC5CCOCC5)c([N+](=O)[O-])c4)c(Oc4cnc5[nH]ccc5c4)c3)CC2)=C(c2ccc(Cl)cc2)C1 + CC(Nc1ncnc2nc[nH]c12)c1cc2cccc(Cl)c2c(=O)n1-c1ccccc1
viability, T/C [5]: 88.6% | viability, T/C [6]: 80.2% | viability, T/C [7]: 80.3% | viability, T/C [8]: 76% | viability, T/C [9]: 61.9% | viability, T/C [10]: 14.3% | viability, T/C [11]: 89.7% | viability, T/C [12]: 89.9% | viability, T/C [13]: 74.5% | viability, T/C [14]: 72.6% | viability, T/C [15]: 64.1% | viability, T/C [16]: 11.7% | viability, T/C [17]: 90.4% | viability, T/C [18]: 88.2% | viability, T/C [19]: 81.9% | viability, T/C [20]: 97.3% | viability, T/C [21]: 59.2% | viability, T/C [22]: 12.4% | viability, T/C [23]: 92.1% | viability, T/C [24]: 88.3% | viability, T/C [25]: 81.4% | viability, T/C [26]: 84.8% | viability, T/C [27]: 59.9% | viability, T/C [28]: 10.8% | viability, T/C (second compound 3.16 µM, first compound 0.0316 µM): 84.5% | viability, T/C (second compound 3.16 µM, first compound 0.1 µM): 87.9% | viability, T/C (second compound 3.16 µM, first compound 0.316 µM): 85% | viability, T/C (second compound 3.16 µM, first compound 1 µM): 75.7% | viability, T/C (second compound 3.16 µM, first compound 3.16 µM): 44.6% | viability, T/C (second compound 3.16 µM, first compound 10 µM): 11.4% | viability, T/C (second compound 10 µM, first compound 0.0316 µM): 64.5% | viability, T/C (second compound 10 µM, first compound 0.1 µM): 55.9% | viability, T/C (second compound 10 µM, first compound 0.316 µM): 57% | viability, T/C (second compound 10 µM, first compound 1 µM): 57% | viability, T/C (second compound 10 µM, first compound 3.16 µM): 37.7% | viability, T/C (second compound 10 µM, first compound 10 µM): 9.06%

IC50 [29]: 4000 nM | IC50 [30]: < 31.6 nM | IC50 [1]: < 31.6 nM | IC50 [2]: < 31.6 nM | IC50 [3]: < 31.6 nM | IC50 [4]: < 31.6 nM
Compound: CC1(C)CCC(Nc2ncc(C(F)(F)F)c(-c3c[nH]c4c(P(C)(C)=O)c(C#N)ccc34)n2)CN1 (stereo not given) + COc1c(OCCCN2CCOCC2)ccc2c3n(c(=NC(=O)c4cnc(N)nc4)nc12)CCN3
viability, T/C [31]: 51.9% | viability, T/C [32]: 57.2% | viability, T/C [33]: 60.6% | viability, T/C [34]: 69% | viability, T/C [35]: 63.2% | viability, T/C [36]: 9.56% | viability, T/C [37]: 44.6% | viability, T/C [38]: 49.3% | viability, T/C [39]: 50.9% | viability, T/C [40]: 55.3% | viability, T/C [41]: 45.5% | viability, T/C [42]: 3.97% | viability, T/C [5]: 23.4% | viability, T/C [6]: 27.9% | viability, T/C [7]: 27.1% | viability, T/C [8]: 33.2% | viability, T/C [9]: 23.2% | viability, T/C [10]: 1.05% | viability, T/C [11]: 11.1% | viability, T/C [12]: 11.1% | viability, T/C [13]: 11.3% | viability, T/C [14]: 12.7% | viability, T/C [15]: 7.29% | viability, T/C [16]: 0.37% | viability, T/C [17]: 2.05% | viability, T/C [18]: 1.65% | viability, T/C [19]: 1.41% | viability, T/C [20]: 1.53% | viability, T/C [21]: 0.65% | viability, T/C [22]: 0.12% | viability, T/C [23]: 1.55% | viability, T/C [24]: 0.66% | viability, T/C [25]: 0.6% | viability, T/C [26]: 0.51% | viability, T/C [27]: 1.51% | viability, T/C [28]: 0.25%

IC50 [29]: > 10000 nM | IC50 [30]: < 31.6 nM | IC50 [1]: < 31.6 nM | IC50 [2]: < 31.6 nM | IC50 [3]: < 31.6 nM | IC50 [4]: < 31.6 nM
Compound: CC(Cn1ccc(-c2ccc(C#N)c(Cl)c2)n1)NC(=O)c1cc(C(C)O)[nH]n1 (stereo not given) + COc1c(OCCCN2CCOCC2)ccc2c3n(c(=NC(=O)c4cnc(N)nc4)nc12)CCN3
viability, T/C [31]: 64.2% | viability, T/C [32]: 66.1% | viability, T/C [33]: 55% | viability, T/C [34]: 62% | viability, T/C [35]: 64.5% | viability, T/C [36]: 48.1% | viability, T/C [37]: 48.6% | viability, T/C [38]: 52.4% | viability, T/C [39]: 45.4% | viability, T/C [40]: 51.1% | viability, T/C [41]: 45% | viability, T/C [42]: 32.2% | viability, T/C [5]: 22.5% | viability, T/C [6]: 25.8% | viability, T/C [7]: 21.9% | viability, T/C [8]: 22.7% | viability, T/C [9]: 24.5% | viability, T/C [10]: 17.4% | viability, T/C [11]: 6.84% | viability, T/C [12]: 7.08% | viability, T/C [13]: 6.29% | viability, T/C [14]: 6.57% | viability, T/C [15]: 7.04% | viability, T/C [16]: 5.04% | viability, T/C [17]: 1.65% | viability, T/C [18]: 1.42% | viability, T/C [19]: 1.54% | viability, T/C [20]: 1.44% | viability, T/C [21]: 1.55% | viability, T/C [22]: 2.61% | viability, T/C [23]: 1.17% | viability, T/C [24]: 0.9% | viability, T/C [25]: 2.01% | viability, T/C [26]: 1.22% | viability, T/C [27]: 2.13% | viability, T/C [28]: 3.1%

IC50 [29]: 38.2 nM | IC50 [30]: < 31.6 nM | IC50 [1]: < 31.6 nM | IC50 [2]: < 31.6 nM | IC50 [3]: < 31.6 nM | IC50 [4]: < 31.6 nM
Compound: Cn1nccc1Nc1nccc(-c2ccn(C(CO)c3ccc(Cl)c(F)c3)c(=O)c2)n1 (stereo not given) + COc1c(OCCCN2CCOCC2)ccc2c3n(c(=NC(=O)c4cnc(N)nc4)nc12)CCN3
viability, T/C [31]: 51.4% | viability, T/C [32]: 42.5% | viability, T/C [33]: 28.6% | viability, T/C [34]: 18.1% | viability, T/C [35]: 14.3% | viability, T/C [36]: 11% | viability, T/C [37]: 44.5% | viability, T/C [38]: 32.1% | viability, T/C [39]: 21.4% | viability, T/C [40]: 12.2% | viability, T/C [41]: 9.48% | viability, T/C [42]: 7.46% | viability, T/C [5]: 19.3% | viability, T/C [6]: 14.8% | viability, T/C [7]: 8.54% | viability, T/C [8]: 5.82% | viability, T/C [9]: 4.42% | viability, T/C [10]: 2.75% | viability, T/C [11]: 6.44% | viability, T/C [12]: 4.39% | viability, T/C [13]: 3.29% | viability, T/C [14]: 2.41% | viability, T/C [15]: 2.36% | viability, T/C [16]: 0.87% | viability, T/C [17]: 1.92% | viability, T/C [18]: 1.3% | viability, T/C [19]: 1.85% | viability, T/C [20]: 1.35% | viability, T/C [21]: 0.41% | viability, T/C [22]: 0.33% | viability, T/C [23]: 0.78% | viability, T/C [24]: 0.82% | viability, T/C [25]: 0.76% | viability, T/C [26]: 0.86% | viability, T/C [27]: 1.32% | viability, T/C [28]: 0.5%
